Measured values from US20240180893A1, “METHODS OF TREATMENT OF BREAST CANCER” (AstraZeneca AB, priority 2022, published 2024).

Key:
Type in all cases: in vivo, human (post-menopausal women)
ESR1m ctDNA = experiment: SERENA-2 phase 2 study: changes in ESR1m ctDNA summed Variant Allele Frequency (sVAF %)
Text: FIG. 6: Changes in ESR1m ctDNA summed Variant Allele Frequency (sVAF %) by treatment group and visit comparisons (pre-treatment is a comparison of samples collected at screening and cycle 1 day 1, C×D1 are comparisons of samples collected at cycle 1 day 1 and cycle×day 1). Variants defined as ESR1m are E380Q, V422del, S463P, L536H/P/R, Y537C/D/N/S. Points represent individual patients, box represents upper quartile, median and lower quartile, whiskers represent 1.5 interquartile range. Treatment with camizestrant 75 mg and 150 mg caused a 100% or near 100% reduction in the level of ESR1m at all timepoints.
Blood and plasma samples for circulating tumour (ctDNA) and cancer antigen 15-3 (CA15-3) analyses will be collected at screening, on Day 1 and Day 15 of Cycle 1, on Day 1 of Cycles 2 to 5, 8-weekly (Day 1 of every 2nd cycle) from Week 25 (Cycle 7) to coincide with tumour imaging, at the EOT and/or disease progression.
The following samples for biomarker research are optional and will collected from patients in the study where possible as specified in the SoA (Table 6). • Paired tumour biopsy samples; pre- and on-treatment. Samples will be collected for patients with tumours amenable to biopsies in up to 12 patients per treatment group. • Additional tumour biopsy samples may be collected at time of progression. Blood samples for circulating tumour DNA. […]

[1] = test system: HR+, HER2− metastatic or loco-regionally recurrent breast cancer; experiment: SERENA-2 phase 2 study: PFS, RECIST 1.1, by Blinded Independent Central Review (BICR); settings: all patients
Text: Measures to minimise bias: randomisation and blinding. This is an open-label study. All patients will receive active treatment. As the Investigators will not be blinded to study treatments, a BICR of tumour scans will be performed to provide independent tumour response assessment in addition to response evaluation by Investigator. To reduce potential bias during the study, eligible patients will be randomly allocated at a 1:1:1:1 ratio to receive 1 of the 4 study treatments.
Blinded Independent Central Review of tumour assessments. Coded copies of all imaging assessments (regardless of modality and including unscheduled visit scans) will be sent to an appointed Contract Research Organisation (CRO) for central analysis. Results of this independent review will not be communicated to Investigators, and the management of patients will be based solely upon the results of the RECIST assessment conducted by the Investigator. The imaging scans will be reviewed by 2 independent radiologists using RECIST version 1.1 and will be adjudicated, if required (i.e., 2 reviewers will review the scans and, in case of a disagreement, adjudication is performed by a separate reviewer). The independent reviewers will be blinded to study treatment.
The BICR will be conducted on an ongoing basis throughout the study. Where possible scans will be batched, and an in-patient series of assessments read together. For each patient, the BICR will define the overall visit response (i.e., the response obtained overall at each visit by assessing TLs, NTLs, and new lesions) and no programmatic derivation of overall visit response is necessary.
Blinded independent central review of tumour response. A sensitivity analysis for the primary endpoint for this study will be based on the BICR of the radiological scans. For each patient, the BICR will define the overall visit response (i.e., the response obtained overall at each visit by assessing TLS, NTLs and new lesions) data and no programmatic derivation of visit response is necessary. PFS will be derived programmatically from the overall visit responses determined for each visit. A BICR of all patients will be performed for the final database lock for the primary analysis of PFS. The BICR will cover all available scans up to the respective DCO.
As a sensitivity analysis to the primary endpoint, the above analysis methods will be repeated based on the BICR.

[2] = test system: HR+, HER2− metastatic or loco-regionally recurrent breast cancer; experiment: SERENA-2 phase 2 study: objective response rate (ORR), patients with measurable disease; settings: for Number of patients with response: includes unconfirmed responses; for Adjusted response rate (%): logistic regression, factors prior CDK4/6 inhibitor and lung and/or liver metastasis; for ORR: comparison against fulvestrant, odds ratio: odds ratio > 1 favors AZD9833; for (%) of patients with response: patients with measurable disease
Text: In embodiments the specification provides a method of treatment of hormone receptor positive (HR+), human epidermal growth factor receptor 2 negative (HER2−), metastatic or loco-regionally recurrent breast cancer, comprising administering camizestrant to a patient suffering from such cancer, characterised in that the cancer has recurred or progressed following at least one prior line of endocrine therapy, wherein the treatment delivers an improvement in objective response rate (ORR) relative to that obtainable with fulvestrant treatment. The ORR is defined as the percentage of patients with at least 1 Investigator-assessed visit response of complete response (CR) or partial response (PR) prior to any evidence of progression. Complete or partial responses are assessed according to the RECIST 1.1 criteria as detailed below. In embodiments the ORR derived from the method of treatment is at least 15.7%, for example 20.3%.
A complete response denotes the disappearance of all target lesions (TLs) since baseline. Any pathological lymph nodes selected as TLs must have a reduction in short axis to <10 mm. A partial response denotes an at least a 30% decrease in the sum of the diameters of TL, taking as reference the baseline sum of diameters. […] Further information on the evaluation of target and non-target lesions is provided below.
The objective response rate (ORR) will be compared between AZD9833 (each dose level) and fulvestrant using a logistic regression model adjusting for prior use of CDK4/6 inhibitors and presence of lung and/or liver metastases.
Secondary endpoints: objective response rate. The ORR is defined as the percentage of patients with at least 1 Investigator-assessed visit response of CR or PR prior to any evidence of progression. The ORR will be based on a subset of the FAS with measurable disease at baseline.
The ORR will be compared between AZD9833 (each dose level) and fulvestrant using a logistic regression model adjusting for prior use of CDK4/6 inhibitors and presence of lung and/or liver metastases. The results of the analysis will be presented in terms of an odds ratio for each treatment comparison together with its associated profile likelihood 90% CI and 2 sided p values (based on twice the change in log-likelihood resulting from the addition of a treatment factor to the model).

C[C@@H]1Cc2c(ccc3[nH]ncc23)[C@@H](c2ccc(NC3CN(CCCF)C3)cn2)N1CC(F)(F)F [camizestrant, N-(1-(3-fluoropropyl)azetidin-3-yl)-6-((6S,8R)-8-methyl-7-(2,2,2-trifluoroethyl)-6,7,8,9-tetrahydro-3H-pyrazolo[4,3-f]isoquinolin-6-yl)pyridin-3-amine]
Reduction in the level of ESR1m (ctDNA sVAF) (ESR1m ctDNA; camizestrant 75 mg and 150 mg, all timepoints vs cycle 1 day 1): ~100% | Hazard ratio for disease progression relative to fulvestrant ([1]; camizestrant 75 mg once daily): 0.56 | Median PFS ([1]; camizestrant 75 mg once daily): 7.4 months | Hazard ratio for disease progression relative to fulvestrant ([1]; camizestrant 150 mg once daily): 0.47 | Median PFS ([1]; camizestrant 150 mg once daily): 12.7 months | Number of patients with response ([2]; AZD9833 75 mg, N=70 with measurable disease): 11 | Adjusted response rate (%) ([2]; AZD9833 75 mg): 15.7% | ORR: comparison against fulvestrant, odds ratio ([2]; AZD9833 75 mg): 1.43 | (%) of patients with response ([2]; AZD9833 75 mg): (15.7) % | Number of patients with response ([2]; AZD9833 150 mg, N=65 with measurable disease): 13 | Adjusted response rate (%) ([2]; AZD9833 150 mg): 20.3% | ORR: comparison against fulvestrant, odds ratio ([2]; AZD9833 150 mg): 1.96 | (%) of patients with response ([2]; AZD9833 150 mg): (20.0) %

C[C@]12CC[C@@H]3c4ccc(O)cc4C[C@@H](CCCCCCCCC[S+]([O-])CCCC(F)(F)C(F)(F)F)[C@H]3[C@@H]1CC[C@@H]2O (stereo partly drawn) [fulvestrant, reference compound]
Reduction in ESR1m ctDNA (ESR1m ctDNA; fulvestrant arm, compared with camizestrant): the extent of the reduction is lower than that observed with camizestrant | Median PFS ([1]; fulvestrant 500 mg once monthly injection): 3.7 months | Number of patients with response ([2]; fulvestrant, N=68 with measurable disease): 8 | Adjusted response rate (%) ([2]; fulvestrant): 11.5% | (%) of patients with response ([2]; fulvestrant): (11.8) %
